The text below walks through data of patent publication US10408843B2, “Compositions and methods for detecting S-nitrosylation and S-sulfinylation” (The Regents of the University of Michigan, priority 2013, dated 2019).

SMILES strings stand for the structures.

The test system of this experiment is S-nitrosylated proteins in mammalian cell lysates. Briefly: Gel-based labeling of endogenous S-nitrosylated proteins in cell lysates. Format: biochemical, human. Conditions: lysates denatured, alkylated with iodoacetamide; streptavidin detection. The protocol: FIG. 8. Dose-dependent labeling of S-nitrosylated proteins by biotin-SO2H. 293T and PANC1 cells were lysed in 6 M urea/PBS and alkylated with 50 mM iodoacetamide for 30 minutes, followed by incubation with increasing concentrations of biotin-SO2H for 45 minutes.
Next, the reactivity of sulfinic acids with native S-nitrosylated proteins was examined. Biotin and fluorescein N-hydroxysuccinimide (NHS) esters were directly coupled to the biological sulfinic acid metabolite hypotaurine (biotin-SO2H) or the sulfonic acid metabolite taurine (biotin-SO3H). Each probe was incubated with mammalian cell lysates pre-alkylated with excess iodoacetamide (FIG. 1b) in 6 M urea/phosphate buffered saline (PBS), and separated by non-reducing SDS-PAGE for transfer to nitrocellulose and streptavidin detection. […]
Cells and lysates were protected from light and kept on ice throughout the labeling protocol, except when noted. […] Lysate protein concentrations were quantified using the Bio-Rad DC assay, and diluted 3 mg/mL in 6 M urea/PBS. […] For in-gel fluorescence analysis, samples were loaded without boiling using non-reducing SDS-PAGE loading buffer for SDS-PAGE separation. […] In-gel fluorescence and streptavidin blots were analyzed using a GE typhoon scanner at appropriate wavelengths (488/526 for fluorescein and 633/670 for Cy5-Streptavidin).

On to `O=C(CCCC[C@@H]1SC[C@@H]2NC(=O)N[C@@H]21)NCCS(=O)O` [biotin-SO2H, 2-(5-((3aS,4S,6aR)-2-oxohexahydro-1H-thieno[3,4-d]imidazol-4-yl)pentanamido)ethanesulfinic Acid], for which the “labeling of mammalian proteins” value is “labels distinct mammalian proteins”.
